Data from the NIST ThermoML archive (doi:10.1021/je025606c).

What was measured:
[1] = Liquid; for kinematic viscosity: Capillary tube (Ostwald / Ubbelohde) method; for mass density: 1000 kPa, Vibrating tube method
[2] = molar heat capacity at constant pressure; conditions: Liquid

CCOCCOCC [1,2-diethoxyethane]
Conditions | kinematic viscosity [m2/s] | molar heat capacity at constant pressure [J/K/mol]
[1], 283.15 K, 101.3 kPa | 9.5e-07 | –
[1], 293.15 K, 101.3 kPa | 8.22e-07 | –
[1], 303.15 K, 101.3 kPa | 7.28e-07 | –
[1], 313.15 K, 101.3 kPa | 6.48e-07 | –
[1], 323.15 K, 101.3 kPa | 5.84e-07 | –
[1], 333.15 K, 101.3 kPa | 5.32e-07 | –
[1], 343.15 K, 101.3 kPa | 4.87e-07 | –
[2], 312.57 K, 1 kPa | – | 264.59
[2], 322.47 K, 1 kPa | – | 265.54
[2], 332.37 K, 1 kPa | – | 268.37
[2], 342.27 K, 1 kPa | – | 270.86
[2], 352.18 K, 1 kPa | – | 273.57
[2], 362.08 K, 1 kPa | – | 276.17
[2], 371.98 K, 1 kPa | – | 280.31
[2], 381.88 K, 1 kPa | – | 283.03
[2], 391.78 K, 1 kPa | – | 286.22
[2], 401.68 K, 1 kPa | – | 289.88
[2], 411.58 K, 1 kPa | – | 293.43
[2], 421.48 K, 1 kPa | – | 296.97

[1]
Conditions | mass density [kg/m3]
283.15 K | 862.9
293.15 K | 852.8
303.15 K | 842.6
313.15 K | 832.3
323.15 K | 822
333.15 K | 811.6
343.15 K | 801.1
353.15 K | 790.5
363.15 K | 779.6
373.15 K | 768.6
383.15 K | 757.2
393.15 K | 745.8
403.15 K | 734
413.15 K | 721.8
423.15 K | 709.4

COCC(C)OCC(C)OC (stereo not drawn) [2-methoxy-1-(2-methoxy-1-methylethoxy)propane]
Conditions | kinematic viscosity [m2/s] | molar heat capacity at constant pressure [J/K/mol]
[1], 283.15 K, 101.33 kPa | 1.41e-06 | –
[1], 293.15 K, 101.33 kPa | 1.2e-06 | –
[1], 303.15 K, 101.33 kPa | 1.03e-06 | –
[1], 313.15 K, 101.33 kPa | 9.03e-07 | –
[1], 323.15 K, 101.33 kPa | 8.01e-07 | –
[1], 333.15 K, 101.33 kPa | 7.19e-07 | –
[1], 343.15 K, 101.33 kPa | 6.5e-07 | –
[1], 353.15 K, 101.33 kPa | 5.93e-07 | –
[1], 363.15 K, 101.33 kPa | 5.51e-07 | –
[1], 373.15 K, 101.33 kPa | 5.06e-07 | –
[1], 383.15 K, 101.33 kPa | 4.69e-07 | –
[1], 393.15 K, 101.33 kPa | 4.37e-07 | –
[1], 403.15 K, 101.33 kPa | 4.07e-07 | –
[1], 413.15 K, 101.33 kPa | 3.81e-07 | –
[1], 423.15 K, 101.33 kPa | 3.59e-07 | –
[2], 312.57 K, 1000 kPa | – | 328.67
[2], 322.47 K, 1000 kPa | – | 332.56
[2], 332.37 K, 1000 kPa | – | 336.62
[2], 342.27 K, 1000 kPa | – | 340.35
[2], 352.18 K, 1000 kPa | – | 345.22
[2], 362.08 K, 1000 kPa | – | 349.92
[2], 371.98 K, 1000 kPa | – | 354.14
[2], 381.88 K, 1000 kPa | – | 359.49
[2], 391.78 K, 1000 kPa | – | 364.69
[2], 401.68 K, 1000 kPa | – | 369.71
[2], 411.58 K, 1000 kPa | – | 373.93
[2], 421.48 K, 1000 kPa | – | 381.23

[1]
Conditions | mass density [kg/m3]
283.15 K | 913
293.15 K | 903.4
303.15 K | 894
313.15 K | 884.8
323.15 K | 875.4
333.15 K | 866
343.15 K | 856.5
353.15 K | 846.9
363.15 K | 837
373.15 K | 827.2
383.15 K | 817.2
393.15 K | 807.2
403.15 K | 797.1
413.15 K | 786.8
423.15 K | 776.3

CCCCOCCOCCOCCOCCCC [5,8,11,14-tetraoxaoctadecane]
Conditions | kinematic viscosity [m2/s] | molar heat capacity at constant pressure [J/K/mol]
[1], 283.15 K, 101.33 kPa | 5.42e-06 | –
[1], 293.15 K, 101.33 kPa | 4.16e-06 | –
[1], 303.15 K, 101.33 kPa | 3.3e-06 | –
[1], 313.15 K, 101.33 kPa | 2.7e-06 | –
[1], 323.15 K, 101.33 kPa | 2.25e-06 | –
[1], 333.15 K, 101.33 kPa | 1.92e-06 | –
[1], 343.15 K, 101.33 kPa | 1.67e-06 | –
[1], 353.15 K, 101.33 kPa | 1.46e-06 | –
[1], 363.15 K, 101.33 kPa | 1.3e-06 | –
[1], 373.15 K, 101.33 kPa | 1.17e-06 | –
[1], 383.15 K, 101.33 kPa | 1.04e-06 | –
[1], 393.15 K, 101.33 kPa | 9.49e-07 | –
[1], 403.15 K, 101.33 kPa | 8.68e-07 | –
[1], 413.15 K, 101.33 kPa | 7.98e-07 | –
[1], 423.15 K, 101.33 kPa | 7.37e-07 | –
[2], 312.57 K, 1000 kPa | – | 544.45
[2], 322.47 K, 1000 kPa | – | 547.86
[2], 332.37 K, 1000 kPa | – | 553.9
[2], 342.27 K, 1000 kPa | – | 559.14
[2], 352.18 K, 1000 kPa | – | 564.65
[2], 362.08 K, 1000 kPa | – | 571.48
[2], 371.98 K, 1000 kPa | – | 578.82
[2], 381.88 K, 1000 kPa | – | 584.33
[2], 391.78 K, 1000 kPa | – | 589.58
[2], 401.68 K, 1000 kPa | – | 597.71
[2], 411.58 K, 1000 kPa | – | 603.75
[2], 421.48 K, 1000 kPa | – | 612.15

[1]
Conditions | mass density [kg/m3]
283.15 K | 926.1
293.15 K | 917.7
303.15 K | 909.4
313.15 K | 901.2
323.15 K | 893
333.15 K | 884.8
343.15 K | 876.5
353.15 K | 868.2
363.15 K | 859.8
373.15 K | 851.4
383.15 K | 843
393.15 K | 834.5
403.15 K | 826.1
413.15 K | 817.6
423.15 K | 809.1
